Laboratory results as given in patent US20090258824A1, “Amyloid beta receptor and uses thereof” (priority 2005, published 2009).

System: cultured cortical neurons
Test: Calcium imaging (Fluo-4) in cultured cortical neurons
Type: cell-based, rat (Sprague Dawley)
Settings: antagonist co-applied with Aβ*56
Method: Cultured neurons. Cultures of cortical neurons from P1 Sprague Dawley rat pups were prepared according to previously published protocols (Dubinsky, J Neurosci 13, 623-631 (1993)). Dissections of cortical mantels excluded meninges, hippocampus, septal regions, and basal ganglia. […]
Size-exclusion chromatography (SEC). […] Fractions of 500 μl of eluate in 50 mM Ammonium Acetate, pH 8.5, were diluted 1:100 or 1:750 in neurophysiology experiments, or were concentrated using a vacuum system (VacuFuge™, Brinkmann-Eppendorf) and analyzed by silver staining.
Calcium imaging. […] Calcium indicator dye fluorescence was monitored with 488 nanometer (nm) excitation, a 500 nm long-pass barrier filter and confocal microscopy (Odyssey scanner, Noran, Middleton, Wis.). […] To quantify neuronal Ca^2+ responses, Ca^2+ fluorescence was measured from single neurons or clusters of neurons. Baseline fluorescence was normalized to one and the area between the curve and the baseline calculated using Origin software analysis routines (OriginLab Corporation, Northampton, Mass.).

Compound | effect on the Aβ*56-induced increase in Ca2+ signal
O=C(O)C1CN(CCCP(=O)(O)O)CCN1 (racemic) [CPP, (+/−)-3-(2-carboxypiperazin-4-yl)-propyl-1-phosphonic acid] | completely abolished
CCC(N)(C(=O)O)c1ccc(C(=O)O)cc1 (racemic) [E4CPG, (RS)-α-Ethyl-4-carboxyphenylglycine] | failed to block
